# Data from patent US20080220528A1, “HIV GENE CLONING STRATEGY” (SCHERING CORPORATION, priority 2006, published 2008).
# pIC50: −log10 of the molar value.
# How the values were obtained:
# [1] = tested on: RU570 passage control virus (RU570-PC); experiment: Viral replication assay in PBL (p24 ELISA), passage control culture; assay type: cell-based, HIV-1; conditions: through 93 weeks of cell culture
# Experimental: The Hut 78 derived PM-1 (Lusso, P., et al (1995). J Virol 69(6), 3712-20) T-cell line was infected with a parental PBL stock of HIV-1 RU570 for one week prior to the initiation of vicriviroc selection starting at 0.1 nM. PM-1 cell cultures were passaged weekly by transferring 1 ml of cell culture supernatant and one tenth of the infected cells into fresh PM-1 cultures (1-2×10^6) in the absence (passage control culture, RU570-PC) or presence (RU570-VCV) of vicriviroc. Culture supernatants were subsequently used to re-infect fresh PM-1 cells weekly. Viral supernatants and infected cells were collected periodically for p24 antigen titers, vicriviroc sensitivity testing in PBL described below in the viral replication assay section, and sequence analysis. […]
# IL-2/PHA-stimulated PBL were seeded into 96-well plates (200,000 cells/well) pretreated with an equal volume of medium plus vicriviroc or medium only at 37° C. for 1 hour. […] Viral replication was assessed by measuring p24 antigen production by ELISA. The IC50 and IC90 values for vicriviroc susceptibility with these viruses was determined by analyzing dose-response curves using a 4-parameter logistic curve fit model with Prism GraphPad Software Version 4.0 (San Diego, Calif.).
# [2] = tested on: RU570-VCV virus; experiment: Viral replication assay in PBL (p24 ELISA), vicriviroc-passaged culture; assay type: cell-based, HIV-1
# Experimental: The Hut 78 derived PM-1 (Lusso, P., et al (1995). J Virol 69(6), 3712-20) T-cell line was infected with a parental PBL stock of HIV-1 RU570 for one week prior to the initiation of vicriviroc selection starting at 0.1 nM. PM-1 cell cultures were passaged weekly by transferring 1 ml of cell culture supernatant and one tenth of the infected cells into fresh PM-1 cultures (1-2×10^6) in the absence (passage control culture, RU570-PC) or presence (RU570-VCV) of vicriviroc. Culture supernatants were subsequently used to re-infect fresh PM-1 cells weekly. Viral supernatants and infected cells were collected periodically for p24 antigen titers, vicriviroc sensitivity testing in PBL described below in the viral replication assay section, and sequence analysis. […] To select for minor populations of highly resistant variants that may have emerged, the concentration of vicriviroc was escalated to 10 μM at week 36 and cultures were maintained in 10 μM vicriviroc until viral replication remained consistent. By approximately week 56, VCV-treated cultures were replicating to similar levels compared to the passage control cultures and maintained consistently robust growth up to 93 weeks when cultures were terminated.
# IL-2/PHA-stimulated PBL were seeded into 96-well plates (200,000 cells/well) pretreated with an equal volume of medium plus vicriviroc or medium only at 37° C. for 1 hour. The plates were centrifuged at 300 g for 10 min and the media aspirated and replaced with 20 μl of fresh medium with or without compound. The cells were then infected in triplicate using 20 μl of viral supernatant (RU570) from 3 hr to overnight at 37° C. The cells were washed twice with PBS to remove residual viral inoculums and cultured in the presence or absence of vicriviroc for 4-6 days. Viral replication was assessed by measuring p24 antigen production by ELISA. The IC50 and IC90 values for vicriviroc susceptibility with these viruses was determined by analyzing dose-response curves using a 4-parameter logistic curve fit model with Prism GraphPad Software Version 4.0 (San Diego, Calif.).
# [3] = tested on: pseudovirus with RU570-PC-C2-V5res chimeric envelope; experiment: Single-cycle HIV-1 pseudovirus assay, effect of viral inoculum; assay type: cell-based; conditions: very high inoculum, 90 ng p24
# Experimental: HIV-1 pseudoviruses were produced in 293T cells by calcium phosphate transfection of pNL4-3E^−Luc^+ and HIV-1 envelope expression vectors using ProFection® Mammalian Transfection system (Promega Corp., Madison, Wis.). HIV-1 pseudovirus was harvested in culture supernatants 48 hrs post-transfection and supernatants were clarified of cell debris by centrifugation at 1500 g for 10 min. Single-cycle infection assays were generally performed on the same day HIV-1 pseudovirus was harvested. To assess susceptibility to CCR5 co-receptor antagonists, 5,000 U87-CD4-CCR5 cells/well were seeded into 96-well luminometer plates (Perkin Elmer) and plates were incubated overnight at 37° C. […] Plates were incubated for 72 hours, and luciferase activity was analyzed by adding 50 μl of BrightGlo™ luciferase assay buffer and plates were read on a Dynex luminometer (300 mSec/well). Relative light units (RLU) were normalized to virus dose, measured as ng p24, and percent inhibition, was calculated as follows: 100−[average normalized RLU for HIV-1 pseudovirus plus drug/average normalized RLU for HIV-1 pseudovirus from control wells without drug]×100. Dose-response data was analyzed using a non-linear regression 4-parameter logistic curve fit program with Prism GraphPad Software Version 4.0 (San Diego, Calif.).
# [4] = tested on: pseudoviruses with ADA-C2-V5res chimeric envelope; experiment: Single-cycle HIV-1 pseudovirus luciferase assay in U87-CD4-CCR5 cells; assay type: cell-based
# Experimental: (§1) Homologous recombination of the V2-C5 gp120 fragment from RU570-PC gp120 clone #16 and RU570-VCVres gp120 clone #8 was performed following restriction endonuclease digestion of constructs with MfeI and gel purification of the 838 bp V2-C5 gp120 fragments (HXB2 gp120 nucleotides 533-1431; gp120 at position 185-478). The pSV7d-ADA gp160 expression vector was digested with BglII and BstZ17I restriction endonucleases, alkaline phosphatase treated and the 5.1 kb vector was gel purified on 1% agarose. A 50:1 ratio of V2-C5res gp120 fragment to vector was used to transform chemically-competent BJ5183 E. coli, and individual colonies were screened by PCR for successful recombination.
# (§2) HIV-1 pseudoviruses were produced in 293T cells by calcium phosphate transfection of pNL4-3E^−Luc^+ and HIV-1 envelope expression vectors using ProFection® Mammalian Transfection system (Promega Corp., Madison, Wis.). HIV-1 pseudovirus was harvested in culture supernatants 48 hrs post-transfection and supernatants were clarified of cell debris by centrifugation at 1500 g for 10 min. Single-cycle infection assays were generally performed on the same day HIV-1 pseudovirus was harvested. To assess susceptibility to CCR5 co-receptor antagonists, 5,000 U87-CD4-CCR5 cells/well were seeded into 96-well luminometer plates (Perkin Elmer) and plates were incubated overnight at 37° C. The next day serial 10-fold dilutions of inhibitor in cell culture medium ([…]) were added to wells one hour prior to the addition of HIV-1 pseudovirus plus inhibitor. Plates were incubated for 72 hours, and luciferase activity was analyzed by adding 50 μl of BrightGlo™ luciferase assay buffer and plates were read on a Dynex luminometer (300 mSec/well). Relative light units (RLU) were normalized to virus dose, measured as ng p24, and percent inhibition, was calculated as follows: 100−[average normalized RLU for HIV-1 pseudovirus plus drug/average normalized RLU for HIV-1 pseudovirus from control wells without drug]×100. Dose-response data was analyzed using a non-linear regression 4-parameter logistic curve fit program with Prism GraphPad Software Version 4.0 (San Diego, Calif.).
# [5] = tested on: pseudoviruses with ADA-V3res chimeric envelope; experiment: as above; assay type: cell-based
# Experimental: as §1, §2
# [6] = tested on: HIV-1 particles pseudotyped with VCVres chimeric RU570-PC envelopes (RU570-PC-C2-C3res, -C2-V4res, -C2-V5res); experiment: as above; assay type: cell-based
# Experimental: as §2
# [7] = tested on: HIV-1 particles pseudotyped with RU570-PC gp160 envelope; experiment: as above; assay type: cell-based
# Experimental: as §2
# [8] = tested on: HIV-1 particles pseudotyped with ADA gp160; experiment: as above; assay type: cell-based
# Experimental: as §2
# [9] = tested on: replication competent HIV-1 virus containing the ADA-C2-V5res chimeric envelope sequence (NL4-3-AD8-C2-V5res); experiment: Vicriviroc susceptibility assay with replication competent virus in U87-CD4-CCR5 cells; assay type: cell-based; conditions: multi-cycle infection
# Excerpt: (§3) The pNL4-3-AD8 molecular clone was modified by deleting 650 bp of cDNA sequence flanking the 5′LTR, thereby creating a unique Stu I site within gp120. The ADA-V3res and ADA-C2-V5res chimeric envelopes were digested with StuI and AleI restriction endonucleases and the 1.2 kb env fragments corresponding to at 203-608 (HXB2 gp160 aa coordinates) were gel purified on 1% agarose. These fragments were cloned directly into pNL4-3-AD8 digested with the same restriction endonucleases and all constructs were verified by DNA sequence analysis.
# (§4) 293T cells were transfected with pNL4-3-AD8, pNL4-3-AD8-C2-V5res, and pNL4-3-AD8-V3res molecular clones using Superfect transfection reagent (Qiagen Corp., Vencia, Calif.) and HIV-1 virus was harvested in supernatants 48 hr post transfection.
# (§5) CCR5 inhibitor resistance was previously reported to be influenced by the assay format in which resistance is evaluated (Pugach, P., et al (2007). Virology 361(1), 212-28). […] In order to evaluate differences in susceptibility profiles between single-cycle and multi-cycle infection assays in U87-CD4-CCR5 cells, we generated replication competent viruses expressing the chimeric gp120 envelopes. Restriction fragments corresponding to HXB2 aa 203-608 within ADA-V3res and ADA-C2-V5res chimeric envelopes were transferred to an NL4-3-AD8 HIV-1 molecular clone by unique restriction-site digestion and relegation. […]
# [10] = tested on: NL4-3-AD8-V3res virus; experiment: as above; assay type: cell-based, HIV-1; conditions: Human immunodeficiency virus 1, NL43, multi-cycle infection
# Excerpt: as §3, §4, §5
# [11] = tested on: NL4-3-AD8 virus; experiment: as above; assay type: cell-based, HIV-1; conditions: Human immunodeficiency virus 1, NL43, multi-cycle infection
# Excerpt: as §3, §4, §5
# [12] = Human immunodeficiency virus 1, U87/CD4/CCR5
smiles,measurement,setting,value
"COC[C@@H](c1ccc(C(F)(F)F)cc1)N1CCN(C2(C)CCN(C(=O)c3c(C)ncnc3C)CC2)C[C@@H]1C [vicriviroc, Vicriviroc]",susceptibility to vicriviroc,[1],remained susceptible
same,pIC50,"[2]; Human immunodeficiency virus 1, RU570-VCV culture until week 45, PBL",> 7.30
same,maximum percent inhibition,"[2]; RU570-VCV culture until week 45, PBL",100%
same,maximal percent inhibition,"[2]; RU570-VCV culture week 45, PBL",approximately 76%
same,maximal percent inhibition,"[2]; RU570-VCV culture week 47, PBL",~45%
same,maximum percent inhibition,"[2]; RU570-VCV culture week 93, PBL, flat dose-response curve",approximately 30%
same,maximum inhibition,[3],100%
same,"maximum inhibition (MI), plateau level",[4]; 2 ng p24 inoculum,approximately 80%
same,susceptibility to vicriviroc (phenotype),"[4]; ADA-C2-V5res pseudovirus, U87-CD4-CCR5 cells",resistant phenotype
same,"maximum inhibition (MI), plateau level","[4]; high virus inocula, 70 ng p24",approximately 55%
same,susceptibility to vicriviroc,[5],completely susceptible
same,pIC50,[6]; [12],9.70 to 10.15
same,inhibition at 0.1 µM,"[6]; Human immunodeficiency virus 1, U87/CD4/CCR5, read-out: maximum inhibition levels",100%
same,pIC50,[7]; [12],10.00
same,MI values,"[7]; RU570-PC 160 construct, regardless of the virus concentration (data not shown)",100%
same,maximum inhibition,[7]; {},100%
same,pIC50,[8]; [12],10.40
same,Emax,"[8]; Human immunodeficiency virus 1, U87/CD4/CCR5, read-out: maximum response, percent inhibition",100%
same,MI values,"[8]; parental ADA gp160, regardless of the virus concentration (data not shown)",100%
same,MI (maximum inhibition),[9],approximately 50%
same,pIC50,[10],10.60
same,pIC50,[11],10.60
